Data reported in patent publication US7115655B2, “Pyranocoumarin derivatives” (Elcom Biotechnology, Co. Ltd., priority 2002, dated 2006).
Where two headings read alike, the source gives them in different places.

Key:
[1] = molecular target: T1, AChE (Electric eel Type V-S, Sigma) (Electrophorus electricus, UniProt O42275); test: biochemical; type: biochemical
T1 construct: purchased Sigma Type V-S
Protocol: AChE inhibitory activity of the methanolic extract and CH2Cl2 fraction of Angelica gigas of the above Example 1 was measured by the method of Ellman et al. (Ellman, et al. (1961) A new and rapid colorimetric determination of acetylcholinesterase activity, Biochem. Pharmacol. 7: 88–95).
(§1) To a test tube containing a chromogen (5,5-dithiobis-2-nitrobenzoic acid) and a sample was added AChE homogenated with phosphate buffered saline (Electric eel Type V-S, Sigma), and a reaction was performed at 37° C. for 5 minutes, and thereto was added a substrate for the enzyme, […], and a reaction was further performed at 37° C. for 3 minutes. Neostigmine bromide was added thereto to terminate the reaction, and then, the absorbance was measured at 412 nm to obtain AChE inhibition (%). The above procedure was repeated with no AChE as a blank, or with no sample as a control.
AChE inhibitory activity of decursin of the above Example 2 and Compound 3 of the above Example 3 was measured according to the method in Experiment 1.
as §1, with “minutes. The above procedure was repeated with no AChE as a blank or with no sample as a control.” for “minutes.”, “obtain IC50 of” for “obtain”, “inhibition.” for “inhibition (%). The above procedure was repeated with no AChE as a blank, or with no sample as a control.”

[2] = system: mice with scopolamine-induced amnesia; test: Passive avoidance test in mice with scopolamine-induced amnesia; type: in vivo, Male ICR mice; details: for cognition-enhancing activity in passive avoidance test, in words: mice with scopolamine-induced amnesia
Description: Male ICR mice weighing 25 to 30 g that had been bred with sufficient water and feed in the Experimental Animal Breeding Center of Seoul National University were supplied and adapted to the laboratory environment for 1 week to be used in this experiment.
An avoidance box (40×20×20 cm) equipped with 3 mm stainless steel rod spaced 0.5 cm apart at the bottom was divided into a light compartment and a dark compartment, and when mice placed in the light compartment entered the dark compartment, an electrical shock (0.1 mA/10 g body weight) was delivered through the stainless steel rods. The above procedure was repeated after 24 hours, and the time for which the mice stayed at the light compartment was measured and used as an index of memorizing the training of the previous day. Passive avoidance test was performed according to the method of Christensen et al. (Cholinergic ‘Blockade’ as a model of the cognitive deficits in Alzheimer's disease, Brain 115: 1681–1699, 1992). Specifically, scopolamine was dissolved in physiological saline to 1.5 mg/kg solution, and the solution was subcutaneously injected to mice 30 minutes before the training to induce amnesia. The Angelica gigas extract was intraperitoneally injected to the mice 1 hour before the scopolamine administration, and observed for its effect on the scopolamine-induced amnesia.
Passive avoidance test was performed according to the method of the above Experiment 1(2) to measure effects of pyranocoumarin derivatives of the present invention. Velnacrine (AChE inhibitor) was used as a positive control.

[3] = read-out: IC50 of AChE inhibition
[4] = Table 4, 1 mg/kg + scopolamine 1.5 mg/kg, Mean ± S.D.
[5] = Table 4, 5 mg/kg + scopolamine 1.5 mg/kg, Mean ± S.D.

T1 sequence (O42275 24-633): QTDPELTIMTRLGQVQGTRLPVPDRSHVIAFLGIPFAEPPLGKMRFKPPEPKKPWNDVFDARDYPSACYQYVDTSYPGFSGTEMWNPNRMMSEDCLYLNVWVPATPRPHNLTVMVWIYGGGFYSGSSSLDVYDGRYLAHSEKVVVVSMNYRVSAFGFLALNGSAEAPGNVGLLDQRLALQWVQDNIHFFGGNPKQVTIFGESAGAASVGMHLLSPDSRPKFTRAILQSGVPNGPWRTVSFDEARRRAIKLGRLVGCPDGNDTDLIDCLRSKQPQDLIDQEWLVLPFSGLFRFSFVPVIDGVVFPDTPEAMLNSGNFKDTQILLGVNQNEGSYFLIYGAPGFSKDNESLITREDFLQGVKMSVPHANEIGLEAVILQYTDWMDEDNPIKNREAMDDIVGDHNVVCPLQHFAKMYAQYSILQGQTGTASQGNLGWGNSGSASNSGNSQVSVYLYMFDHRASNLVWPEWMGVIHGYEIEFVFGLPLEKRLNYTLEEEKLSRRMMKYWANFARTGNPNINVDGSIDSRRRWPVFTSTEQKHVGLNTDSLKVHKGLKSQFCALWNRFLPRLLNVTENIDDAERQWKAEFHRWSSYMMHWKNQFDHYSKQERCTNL

| Compound | IC50 [1, 3] [µM] | Step-through latency [2, 4] [s] | Step-through latency [2, 5] [s] | cognition-enhancing activity in passive avoidance test, in words [2] | AChE inhibitory activity, comparison in words [1] | other results |
| --- | --- | --- | --- | --- | --- | --- |
| CC1(C)Oc2cc3oc(=O)ccc3cc2C[C@@H]1O [Compound 2, decursinol, reference compound] | 28 | 52.1 ± 8.8 | 54.4 ± 10.6 | did not show such activity | – | Step-through latency ([2]; Table 4, 10 mg/kg + scopolamine 1.5 mg/kg, Mean ± S.D.): 43.2 ± 7.7 s |
| Nc1c2c(nc3ccccc13)CCCC2O (stereo not drawn) [velnacrine, Velnacrine, reference compound] | – | 73.4 ± 6.4 | – | – | – | – |
| CC(C)=CC(=O)O[C@H]1Cc2cc3ccc(=O)oc3cc2OC1(C)C [Compound 1, decursin] | – | 108.6 ± 15.0 | 96.5 ± 18.2 | excellent cognition-enhancing activity | better AChE inhibitory activity than decursinol | IC50 [1]: 480 µM; Step-through latency ([2]; Table 4, 0.5 mg/kg + scopolamine 1.5 mg/kg, Mean ± S.D.): 32.1 ± 13.4 s |
| CN1[C@@H]2C[C@@H](OC(=O)[C@H](CO)c3ccccc3)C[C@H]1[C@@H]1O[C@@H]12 [Scopolamine, scopolamine, reference compound] | – | – | – | – | – | Step-through latency ([2]; Table 2, scopolamine alone 1.5 mg/kg s.c. (amnesia induction), saline 158.8 ± 27.6): 29.7 ± 3.1 s; Step-through latency ([2]; Table 4, scopolamine alone 1.5 mg/kg s.c. (amnesia induction), saline 172.0 ± 16.0): 29.7 ± 2.8 s; Step-through latency ([2]; Table 5, scopolamine alone 1.5 mg/kg s.c. (amnesia induction), saline 179.7 ± 0.6): 28.4 ± 10.1 s |
| COc1ccc(/C=C/C(=O)OC2Cc3cc4ccc(=O)oc4cc3OC2(C)C)cc1 (stereo not drawn) [Compound 3] | 51 | – | – | excellent cognition-enhancing activity | better AChE inhibitory activity than decursinol | Step-through latency ([2]; Table 5, 1 mg/kg + scopolamine 1.5 mg/kg, Mean ± S.D.): 42.0 ± 17.9 s; Step-through latency ([2]; Table 5, 2 mg/kg + scopolamine 1.5 mg/kg, Mean ± S.D.): 86.0 ± 18.2 s; Step-through latency ([2]; Table 5, 5 mg/kg + scopolamine 1.5 mg/kg, Mean ± S.D.): 171.2 ± 18.7 s |
